Key:
bedstraw = test: Test B pre/postemergence bedstraw; type: in vivo, Galium aparine
Procedure, shortened: (§1)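 Test chemicals in a non-phytotoxic solvent mixture with surfactant were sprayed preemergence onto planted seeds and postemergence onto plants 2 to 18 cm tall (1- to 4-leaf stage). After twelve to sixteen days in a greenhouse, injury was visually rated against untreated controls from 0 (no effect) to 10 (complete control).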

surinam grass = test: Test B pre/postemergence surinam grass; type: in vivo, Brachiaria decumbens
Procedure, shortened: as §1

blackgrass = test: Test B pre/postemergence blackgrass; type: in vivo, Alopecurus myosuroides
Procedure, shortened: as §1

pigweed = test: Test B pre/postemergence pigweed; type: in vivo, Amaranthus retroflexus
Procedure, shortened: as §1

smallflower flatsedge = test: Test B flood test smallflower flatsedge; type: in vivo, Cyperus difformis
Procedure, shortened: (§2)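 Each value is a visual injury score relative to controls, with 10 meaning complete control and 0 no effect. Evaluation took place twelve to sixteen days after the 2-leaf-stage plants were treated and kept in the greenhouse.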

soybean = test: Test B pre/postemergence soybean; type: in vivo, Glycine max
Procedure, shortened: as §1

sugar beet = test: Test B pre/postemergence sugar beet; type: in vivo, Beta vulgaris
Procedure, shortened: as §1

morningglory = test: Test B pre/postemergence morningglory; type: in vivo, Ipomoea hederacea
Procedure, shortened: as §1

purple nutsedge = test: Test B pre/postemergence purple nutsedge; type: in vivo, Cyperus rotundus
Procedure, shortened: as §1

wheat = test: Test B pre/postemergence wheat; type: in vivo, Triticum aestivum
Procedure, shortened: as §1

giant foxtail = test: Test B pre/postemergence giant foxtail; type: in vivo, Setaria faberii
Procedure, shortened: as §1

bamyardgrass = test: Test B flood test barnyardgrass; type: in vivo, Echinochloa crus-galli
Procedure, shortened: as §2

wild oat = test: Test B pre/postemergence wild oat; type: in vivo, Avena fatua
Procedure, shortened: as §1

duck salad = test: Test B flood test duck salad; type: in vivo, Heteranthera limosa
Procedure, shortened: as §2

cocklebur = test: Test B pre/postemergence cocklebur; type: in vivo, Xanthium strumarium
Procedure, shortened: as §1

rape = test: Test B pre/postemergence rape; type: in vivo, Brassica napus
Procedure, shortened: as §1

[1] = Postemergence, Rate 62 g/ha, scale 0 to 10, 0 is no effect, 10 is complete control
[2] = Postemergence, Rate 250 g/ha, scale 0 to 10, 0 no effect, 10 complete control
[3] = Preemergence, Rate 62 g/ha, scale 0 to 10, 0 is no effect, 10 is complete control
[4] = Preemergence, Rate 125 g/ha, scale 0 to 10 (0 no effect, 10 complete control)
[5] = Preemergence, Rate 250 g/ha, scale of 0 to 10 where 0 is no effect and 10 is complete control
[6] = Preemergence, Rate 500 g/ha, scale 0 (no effect) to 10 (complete control)
[7] = Rate 125 g/ha, Postemergence, scale 0 to 10, 0 no effect, 10 complete control
[8] = Rate 500 g/ha, Postemergence, 0 to 10 scale (0 no effect, 10 complete control)
[9] = Rate 125 g/ha, Postemergence section (flood test species), scale 0 to 10, 0 no effect, 10 complete control
[10] = flood test, listed under Postemergence, Rate 250 g/ha, scale 0 to 10, 0 no effect, 10 complete control
[11] = Rate 500 g/ha, Postemergence section of Table B, 0 to 10 scale (0 no effect, 10 complete control)

Cc1ccccc1-n1c(=O)on(C(=O)N(c2ccc([N+](=O)[O-])cc2)C(C)C)c1=O [Compound 44]
1: Blackgrass plant response rating (blackgrass; [6]) | Soybean plant response rating (soybean; [2]) | Morningglory plant response rating (morningglory; [8]) | Giant foxtail plant response rating (giant foxtail; [6])
0: Bedstraw plant response rating (bedstraw; [1]) | Bedstraw plant response rating (bedstraw; [2]) | Plant response rating, Bedstraw (bedstraw; [3]) | Plant response rating, Bedstraw (bedstraw; [4]) | Plant response rating, Bedstraw (bedstraw; [5]) | Bedstraw plant response rating (bedstraw; [6]) | Bedstraw plant response rating (bedstraw; [7]) | Bedstraw plant response rating (bedstraw; [8]) | B. signalgrass plant response rating (surinam grass; [1]) | B. signalgrass plant response rating (surinam grass; [2]) | Plant response rating, B. signalgrass (surinam grass; [3]) | Plant response rating, B. signalgrass (surinam grass; [4]) | Plant response rating, B. signalgrass (surinam grass; [5]) | B. signalgrass plant response rating (surinam grass; [6]) | B. signalgrass plant response rating (surinam grass; [7]) | B. signalgrass plant response rating (surinam grass; [8]) | Blackgrass plant response rating (blackgrass; [1]) | Blackgrass plant response rating (blackgrass; [2]) | Plant response rating, Blackgrass (blackgrass; [3]) | Plant response rating, Blackgrass (blackgrass; [4]) | Plant response rating, Blackgrass (blackgrass; [5]) | Blackgrass plant response rating (blackgrass; [7]) | Blackgrass plant response rating (blackgrass; [8]) | Redroot pigweed plant response rating (pigweed; [1]) | Redroot pigweed plant response rating (pigweed; [2]) | Plant response rating, Redroot pigweed (pigweed; [3]) | Plant response rating, Redroot pigweed (pigweed; [4]) | Plant response rating, Redroot pigweed (pigweed; [5]) | Redroot pigweed plant response rating (pigweed; [6]) | Redroot pigweed plant response rating (pigweed; [7]) | Redroot pigweed plant response rating (pigweed; [8]) | S. Flatsedge plant response rating (smallflower flatsedge; [1]) | S. Flatsedge plant response rating (smallflower flatsedge; [9]) | S. Flatsedge plant response rating (smallflower flatsedge; [10]) | Soybean plant response rating (soybean; [1]) | Plant response rating, Soybean (soybean; [3]) | Plant response rating, Soybean (soybean; [4]) | Plant response rating, Soybean (soybean; [5]) | Soybean plant response rating (soybean; [6]) | Soybean plant response rating (soybean; [7]) | Sugarbeets plant response rating (sugar beet; [1]) | Sugarbeets plant response rating (sugar beet; [2]) | Plant response rating, Sugarbeets (sugar beet; [3]) | Plant response rating, Sugarbeets (sugar beet; [4]) | Plant response rating, Sugarbeets (sugar beet; [5]) | Sugarbeets plant response rating (sugar beet; [6]) | Sugarbeets plant response rating (sugar beet; [7]) | Morningglory plant response rating (morningglory; [1]) | Morningglory plant response rating (morningglory; [2]) | Plant response rating, Morningglory (morningglory; [3]) | Plant response rating, Morningglory (morningglory; [4]) | Plant response rating, Morningglory (morningglory; [5]) | Morningglory plant response rating (morningglory; [6]) | Morningglory plant response rating (morningglory; [7]) | Nutsedge plant response rating (purple nutsedge; [1]) | Nutsedge plant response rating (purple nutsedge; [2]) | Plant response rating, Nutsedge (purple nutsedge; [3]) | Plant response rating, Nutsedge (purple nutsedge; [4]) | Plant response rating, Nutsedge (purple nutsedge; [5]) | Nutsedge plant response rating (purple nutsedge; [6]) | Nutsedge plant response rating (purple nutsedge; [7]) | Nutsedge plant response rating (purple nutsedge; [8]) | Wheat plant response rating (wheat; [1]) | Wheat plant response rating (wheat; [2]) | Plant response rating, Wheat (wheat; [3]) | Plant response rating, Wheat (wheat; [4]) | Plant response rating, Wheat (wheat; [5]) | Wheat plant response rating (wheat; [6]) | Wheat plant response rating (wheat; [7]) | Giant foxtail plant response rating (giant foxtail; [1]) | Giant foxtail plant response rating (giant foxtail; [2]) | Plant response rating, Giant foxtail (giant foxtail; [3]) | Plant response rating, Giant foxtail (giant foxtail; [4]) | Plant response rating, Giant foxtail (giant foxtail; [5]) | Giant foxtail plant response rating (giant foxtail; [7]) | Giant foxtail plant response rating (giant foxtail; [8]) | Barnyardgrass plant response rating (bamyardgrass; [1]) | Barnyardgrass plant response rating (bamyardgrass; [9]) | Barnyardgrass plant response rating (bamyardgrass; [11]) | Barnyardgrass plant response rating (bamyardgrass; [10]) | Wild oats plant response rating (wild oat; [1]) | Wild oats plant response rating (wild oat; [2]) | Plant response rating, Wild oats (wild oat; [4]) | Plant response rating, Wild oats (wild oat; [5]) | Wild oats plant response rating (wild oat; [6]) | Wild oats plant response rating (wild oat; [7]) | Ducksalad plant response rating (duck salad; [1]) | Ducksalad plant response rating (duck salad; [9]) | Ducksalad plant response rating (duck salad; [11]) | Ducksalad plant response rating (duck salad; [10]) | Cocklebur plant response rating (cocklebur; [1]) | Cocklebur plant response rating (cocklebur; [2]) | Plant response rating, Cocklebur (cocklebur; [3]) | Plant response rating, Cocklebur (cocklebur; [5]) | Cocklebur plant response rating (cocklebur; [6]) | Cocklebur plant response rating (cocklebur; [7]) | Cocklebur plant response rating (cocklebur; [8]) | Rape plant response rating (rape; [1]) | Rape plant response rating (rape; [2]) | Plant response rating, Rape (rape; [3]) | Plant response rating, Rape (rape; [4]) | Plant response rating, Rape (rape; [5]) | Rape plant response rating (rape; [6]) | Rape plant response rating (rape; [7]) | Rape plant response rating (rape; [8])
